# Experiments:
# [1] = system: rice; test: Test B flood test rice; format: in vivo, Oryza sativa
# Summary of the method: (§1)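 Each value is a visual injury score relative to controls, with 10 meaning complete control and 0 no effect. Evaluation took place twelve to sixteen days after the 2-leaf-stage plants were treated and kept in the greenhouse.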
# [2] = system: purple nutsedge; test: Test B pre/postemergence purple nutsedge; format: in vivo, Cyperus rotundus
# Summary of the method: (§2)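 Herbicidal effect was estimated by eye on a ten-point control scale after plants spent twelve to sixteen days in a greenhouse following soil or foliar treatment. Foliar sprays targeted plants at one to four leaves; all doses were formulated in a non-phytotoxic solvent with surfactant.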
# [3] = system: cocklebur; test: Test B pre/postemergence cocklebur; format: in vivo, Xanthium strumarium
# Summary of the method: as §2
# [4] = system: surinam grass; test: Test B pre/postemergence surinam grass; format: in vivo, Brachiaria decumbens
# Summary of the method: as §2
# [5] = system: bamyardgrass; test: Test B flood test barnyardgrass; format: in vivo, Echinochloa crus-galli
# Summary of the method: as §1
# [6] = system: crabgrass; test: Test B pre/postemergence crabgrass; format: in vivo, Digitaria sanguinalis
# Summary of the method: as §2
# [7] = system: wheat; test: Test B pre/postemergence wheat; format: in vivo, Triticum aestivum
# Summary of the method: as §2
# [8] = system: bedstraw; test: Test B pre/postemergence bedstraw; format: in vivo, Galium aparine
# Summary of the method: as §2
# [9] = system: smallflower flatsedge; test: Test B flood test smallflower flatsedge; format: in vivo, Cyperus difformis
# Summary of the method: as §1
# [10] = system: soybean; test: Test B pre/postemergence soybean; format: in vivo, Glycine max
# Summary of the method: as §2
# [11] = system: duck salad; test: Test B flood test duck salad; format: in vivo, Heteranthera limosa
# Summary of the method: as §1
# [12] = system: rape; test: Test B pre/postemergence rape; format: in vivo, Brassica napus
# Summary of the method: as §2
# [13] = system: sugar beet; test: Test B pre/postemergence sugar beet; format: in vivo, Beta vulgaris
# Summary of the method: as §2
# [14] = system: pigweed; test: Test B pre/postemergence pigweed; format: in vivo, Amaranthus retroflexus
# Summary of the method: as §2
# [15] = system: velvetleaf; test: Test B pre/postemergence velvetleaf; format: in vivo, Abutilon theophrasti
# Summary of the method: as §2
# [16] = system: corn; test: Test B pre/postemergence corn; format: in vivo, Zea mays
# Summary of the method: as §2
# [17] = system: giant foxtail; test: Test B pre/postemergence giant foxtail; format: in vivo, Setaria faberii
# Summary of the method: as §2
# [18] = system: blackgrass; test: Test B pre/postemergence blackgrass; format: in vivo, Alopecurus myosuroides
# Summary of the method: as §2
# [19] = system: morningglory; test: Test B pre/postemergence morningglory; format: in vivo, Ipomoea hederacea
# Summary of the method: as §2
# [20] = system: wild oat; test: Test B pre/postemergence wild oat; format: in vivo, Avena fatua
# Summary of the method: as §2
# [21] = Rate 62 g/ha, flood test species, Pre-emergence, visual evaluation after twelve to sixteen days
# [22] = Rate 125 g/ha, under heading Pre-emergence, flood test species, visual evaluation after twelve to sixteen days
# [23] = Rate 250 g/ha, Pre-emergence, flood-test species, scale 0 to 10, 0 is no effect, 10 is complete control
# [24] = Postemergence, Rate 250 g/ha, scale 0 to 10, 0 is no effect, 10 is complete control
# [25] = Postemergence, Rate 500 g/ha, scale of 0 to 10 where 0 is no effect and 10 is complete control
# [26] = Preemergence, Rate 62 g/ha, scale 0 to 10 (0 no effect, 10 complete control)
# [27] = Preemergence, Rate 125 g/ha, scale of 0 to 10 where 0 is no effect and 10 is complete control
# [28] = Preemergence, Rate 250 g/ha, scale 0 to 10, 0 is no effect, 10 is complete control
# [29] = Preemergence, Rate 500 g/ha, scale 0 to 10, 0 is no effect, 10 is complete control
# [30] = Postemergence, Rate 125 g/ha, scale 0 to 10, 0 is no effect, 10 is complete control
# [31] = Rate 62 g/ha, Postemergence, scale of 0 to 10 where 0 is no effect and 10 is complete control
# [32] = Preemergence, Rate 250 g/ha, scale of 0 to 10 where 0 is no effect and 10 is complete control
structure (smiles),measurement,setting,value
CC(C)N(C(=O)n1oc(=O)n(C(C)C2CC2)c1=O)c1ccc(F)cc1 (stereo not drawn) [Compound 404],"Plant response rating, Rice (0 to 10 scale, 0 is no effect, 10 is complete control)",[1]; [21],0
same,"Rice plant response rating (0 to 10 scale, 0 is no effect, 10 is complete control)",[1]; [22],0
same,Rice plant response rating,[1]; [23],7
same,"Plant response rating, Nutsedge",[2]; [24],0
same,Nutsedge plant response rating,[2]; [25],0
same,"Plant response rating, Nutsedge",[2]; [26],0
same,"Plant response rating, Nutsedge",[2]; [27],0
same,Nutsedge plant response rating,[2]; [28],0
same,Nutsedge plant response rating,[2]; [29],0
same,"Plant response rating, Cocklebur",[3]; [30],2
same,"Plant response rating, Cocklebur",[3]; [24],2
same,Cocklebur plant response rating,[3]; [25],3
same,"Plant response rating, Cocklebur",[3]; [26],0
same,"Plant response rating, Cocklebur",[3]; [27],0
same,Cocklebur plant response rating,[3]; [28],0
same,Cocklebur plant response rating,[3]; [29],0
same,Cocklebur plant response rating,[3]; [31],0
same,"Plant response rating, B. signalgrass",[4]; [30],2
same,B. signalgrass plant response rating,[4]; [25],6
same,"Plant response rating, B. signalgrass",[4]; [26],2
same,"Plant response rating, B. signalgrass",[4]; [27],4
same,B. signalgrass plant response rating,[4]; [32],8
same,B. signalgrass plant response rating,"[4]; Preemergence, Rate 500 g/ha, scale of 0 to 10 where 0 is no effect and 10 is complete control",10
same,B. signalgrass plant response rating,[4]; [31],2
same,"Plant response rating, Barnyardgrass (0 to 10 scale, 0 is no effect, 10 is complete control)",[5]; [21],4
same,"Barnyardgrass plant response rating (0 to 10 scale, 0 is no effect, 10 is complete control)",[5]; [22],9
same,Barnyardgrass plant response rating,[5]; [23],9
same,"Plant response rating, Crabgrass",[6]; [30],3
same,"Plant response rating, Crabgrass",[6]; [24],5
same,Crabgrass plant response rating,[6]; [25],8
same,"Plant response rating, Crabgrass",[6]; [26],10
same,"Plant response rating, Crabgrass",[6]; [27],10
same,Crabgrass plant response rating,[6]; [28],10
same,Crabgrass plant response rating,[6]; [29],10
same,Crabgrass plant response rating,[6]; [31],0
same,Wheat plant response rating,[7]; [25],3
same,"Plant response rating, Wheat",[7]; [26],0
same,"Plant response rating, Wheat",[7]; [27],2
same,Wheat plant response rating,[7]; [28],4
same,Wheat plant response rating,[7]; [29],5
same,"Plant response rating, Bedstraw",[8]; [24],8
same,"Plant response rating, Bedstraw",[8]; [26],0
same,Bedstraw plant response rating,[8]; [32],10
same,Bedstraw plant response rating,[8]; [29],10
same,"Plant response rating, S. Flatsedge (0 to 10 scale, 0 is no effect, 10 is complete control)",[9]; [21],0
same,"S. Flatsedge plant response rating (0 to 10 scale, 0 is no effect, 10 is complete control)",[9]; [22],0
same,S. Flatsedge plant response rating,[9]; [23],8
same,"Plant response rating, Soybean",[10]; [24],6
same,Soybean plant response rating,[10]; [25],7
same,"Plant response rating, Soybean",[10]; [26],0
same,"Plant response rating, Soybean",[10]; [27],0
same,Soybean plant response rating,[10]; [28],0
same,Soybean plant response rating,[10]; [29],3
same,"Plant response rating, Ducksalad (0 to 10 scale, 0 is no effect, 10 is complete control)",[11]; [21],0
same,"Ducksalad plant response rating (0 to 10 scale, 0 is no effect, 10 is complete control)",[11]; [22],1
same,Ducksalad plant response rating,[11]; [23],5
same,"Plant response rating, Rape",[12]; [24],4
same,Rape plant response rating,[12]; [25],8
same,"Plant response rating, Rape",[12]; [26],1
same,"Plant response rating, Rape",[12]; [27],4
same,Rape plant response rating,[12]; [28],7
same,Rape plant response rating,[12]; [29],8
same,"Plant response rating, Sugarbeets",[13]; [24],1
same,Sugarbeets plant response rating,[13]; [25],4
same,"Plant response rating, Sugarbeets",[13]; [26],0
same,"Plant response rating, Sugarbeets",[13]; [27],3
same,Sugarbeets plant response rating,[13]; [28],6
same,Sugarbeets plant response rating,[13]; [29],8
same,"Plant response rating, Redroot pigweed",[14]; [24],5
same,Redroot pigweed plant response rating,[14]; [25],7
same,"Plant response rating, Redroot pigweed",[14]; [26],2
same,"Plant response rating, Redroot pigweed",[14]; [27],6
same,Redroot pigweed plant response rating,[14]; [28],10
same,Redroot pigweed plant response rating,[14]; [29],10
same,"Plant response rating, Velvetleaf",[15]; [24],0
same,Velvetleaf plant response rating,[15]; [25],6
same,"Plant response rating, Velvetleaf",[15]; [26],0
same,"Plant response rating, Velvetleaf",[15]; [27],1
same,Velvetleaf plant response rating,[15]; [28],5
same,Velvetleaf plant response rating,[15]; [29],7
same,"Plant response rating, Corn",[16]; [30],0
same,"Plant response rating, Corn",[16]; [24],0
same,Corn plant response rating,[16]; [25],1
same,"Plant response rating, Corn",[16]; [26],0
same,"Plant response rating, Corn",[16]; [27],2
same,Corn plant response rating,[16]; [28],2
same,Corn plant response rating,[16]; [29],6
same,Corn plant response rating,[16]; [31],0
same,"Plant response rating, Giant foxtail",[17]; [30],9
same,"Plant response rating, Giant foxtail",[17]; [24],9
same,Giant foxtail plant response rating,[17]; [25],9
same,"Plant response rating, Giant foxtail",[17]; [26],10
same,"Plant response rating, Giant foxtail",[17]; [27],10
same,Giant foxtail plant response rating,[17]; [28],10
same,Giant foxtail plant response rating,[17]; [29],10
same,Giant foxtail plant response rating,[17]; [31],5
same,"Plant response rating, Blackgrass",[18]; [24],10
same,Blackgrass plant response rating,[18]; [25],10
same,"Plant response rating, Blackgrass",[18]; [26],6
same,"Plant response rating, Blackgrass",[18]; [27],7
same,Blackgrass plant response rating,[18]; [32],9
same,Blackgrass plant response rating,[18]; [29],10
same,Blackgrass plant response rating,[18]; [31],5
same,"Plant response rating, Morningglory",[19]; [24],7
same,Morningglory plant response rating,[19]; [25],10
same,"Plant response rating, Morningglory",[19]; [26],0
same,"Plant response rating, Morningglory",[19]; [27],2
same,Morningglory plant response rating,[19]; [28],4
same,Morningglory plant response rating,[19]; [29],5
same,Wild oats plant response rating,[20]; [25],8
same,"Plant response rating, Wild oats",[20]; [26],3
same,"Plant response rating, Wild oats",[20]; [27],8
same,Wild oats plant response rating,[20]; [28],10
same,Wild oats plant response rating,[20]; [29],10
